In patent publication US4840935A, “Peptide amino-alcohol derivatives containing a tetrasubstituted carbon atom, inhibiting renin and acid proteases, process for obtention and therapeutical use” (Sanofi, priority 1985, dated 1989):
Square brackets hold non-standard residues; d marks the D form. Peptide text beside a SMILES is read from it. * marks the point of attachment. ξ: configuration not given here. Propanoyl(3-(3-pyridyl)) = O=C(CCc1cccnc1)*; His(τ-Me) = Cn1cnc(C[C@H](N)C(=O)O)c1; Sta = CC(C)C[C@H](N)[C@@H](O)CC(=O)O; NHC(Me)(CH2OH)2 = CC(CO)(CO)N*; NHC(CH2OH)3 = OCC(CO)(CO)N*; ξ3Pal = NC(Cc1cccnc1)C(=O)O; Isovaleryl = CC(C)CC(=O)*; Nle = CCCC[C@H](N)C(=O)O; Boc = CC(C)(C)OC(=O)*; X2 = OCC1(N*)CCCCC1; X1 = CC(C)(CO)N*

Molecular target: T1, renin (Homo sapiens, UniProt P00797)
T1 sequence (P00797 67-406): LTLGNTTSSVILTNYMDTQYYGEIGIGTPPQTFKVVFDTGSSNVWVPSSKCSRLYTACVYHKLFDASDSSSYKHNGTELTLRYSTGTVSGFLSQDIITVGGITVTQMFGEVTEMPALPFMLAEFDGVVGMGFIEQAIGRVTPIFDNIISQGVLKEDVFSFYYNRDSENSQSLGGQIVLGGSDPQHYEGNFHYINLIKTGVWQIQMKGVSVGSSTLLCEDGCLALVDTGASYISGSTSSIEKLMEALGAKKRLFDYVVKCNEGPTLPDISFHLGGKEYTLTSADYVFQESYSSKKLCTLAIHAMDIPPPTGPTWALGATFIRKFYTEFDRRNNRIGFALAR
Assay: not given
Settings: cited from earlier work

SMILES | affinity for renin
CC(C)CC(=O)N[C@H](C(=O)N[C@H](C(=O)N[C@@H](CC(C)C)[C@@H](O)CC(=O)N[C@@H](C)C(=O)N[C@@H](CC(C)C)[C@@H](O)CC(=O)O)C(C)C)C(C)C [Pepstatin, isovaleryl-L-valyl-L-valyl-statyl-L-alanyl-statin] (Isovaleryl-VV[Sta]A[Sta]-OH) | low affinity for renin

Molecular target: T2, human plasma renin activity (PRA) (Homo sapiens, UniProt P00797)
T2 construct: from tissue; host or cells: human plasma pool
T2 sequence (P00797 67-406): T1 sequence (P00797 67-406)
Assay: Inhibition of human plasma renin activity (PRA), angiotensin I released measured by radioimmunoassay
Format: biochemical
Settings: human plasma pool, 60 minutes at 37° C., phosphate buffer pH 7.4; IC50 evaluated in mol, expressed as -log IC50
Method: The products according to the invention were studied for their therapeutic properties and especially their inhibitory action on enzymes. More particularly, the compounds were evaluated "in vitro" in terms of their inhibition of human plasma renin activity (PRA).
The method of evaluation is based on that of GUYENE (J. Clin. Endocrinol. Metab., 1976, 43, 1301). The inhibition of PRA is evaluated from a human plasma pool rich in renin ([…] of angiotensin I released per milliliter per hour), incubated for 60 minutes at 37° C., in a phosphate buffer at pH 7.4, in the presence of increasing concentrations of the product to be studied.
Human plasma contains the substrate angiotensinogen and the enzyme:renin. The angiotensin I released during the reaction is measured by radioimmunoassay: Plasma Renin Activity Kit from Travenol (nos. CA 533, 553). An inhibitor of the conversion enzyme, phenylmethylsulfonyl fluoride (PMSF), is added to the incubation medium. The total incubation volume is 555 microliters made up as follows:
420 microliters of human plasma
11 to 50 microliters of the product to be studied, at variable concentrations
119 to 80 microliters of phosphate buffer 5 microliters of PMSF.
A 1N solution of acetic acid in methanol (19/1 by volume) and a 1N solution of sodium hydroxide in methanol (2/1 by volume) are prepared. In a mixture of equal volumes of these 2 solutions, a 0.001M stock solution of the product to be studied is prepared. The subsequent dilutions are then made up in the phosphate buffer.
The results are expressed as their logarithmic value (-log IC50).

SMILES | IC50
CCCC[C@H](NC(=O)[C@H](Cc1ccccc1)NC(=O)OC(C)(C)C)C(=O)N[C@@H](CC(C)C)[C@@H](O)CC(=O)N[C@H](C(=O)NC(C)(CO)CO)[C@@H](C)CC [SR 43 574] (Boc-F[Nle][Sta]I-{NHC(Me)(CH2OH)2}) | 2.63 nM
CCCC[C@H](NC(=O)[C@H](Cc1ccccc1)NC(=O)OC(C)(C)C)C(=O)N[C@@H](Cc1ccccc1)[C@@H](O)CC(=O)N[C@H](C(=O)NC(CO)(CO)CO)[C@@H](C)CC [SR 43 576] | 3.98 nM
CCCC[C@H](NC(=O)[C@H](Cc1ccccc1)NC(=O)CCc1cccnc1)C(=O)N[C@@H](Cc1ccccc1)[C@@H](O)CC(=O)N[C@H](C(=O)NC(CO)(CO)CO)[C@@H](C)CC [SR 43 603] | 0.479 nM
CCCC[C@H](NC(=O)[C@H](Cc1ccccc1)NC(=O)OC(C)(C)C)C(=O)N[C@@H](CC(C)C)[C@@H](O)CC(=O)N[C@H](C(=O)NC(C)(C)CO)[C@@H](C)CC [SR 43 686] (Boc-F[Nle][Sta]I-X1) | 6.03 nM
CCCC[C@H](NC(=O)[C@H](Cc1ccccc1)NC(=O)CCc1cccnc1)C(=O)N[C@@H](CC(C)C)[C@@H](O)CC(=O)N[C@H](C(=O)NC(C)(CO)CO)[C@@H](C)CC [SR 43 707] ({Propanoyl(3-(3-pyridyl))}-F[Nle][Sta]I-{NHC(Me)(CH2OH)2}) | 3.55 nM
CCCC[C@H](NC(=O)[C@H](Cc1ccccc1)NC(=O)OC(C)(C)C)C(=O)N[C@@H](CC1CCCCC1)[C@@H](O)CC(=O)N[C@H](C(=O)NC(C)(CO)CO)[C@@H](C)CC [SR 43 721] | 7.76 nM
CC[C@H](C)[C@H](NC(=O)C[C@H](O)[C@H](CC(C)C)NC(=O)[C@H](Cc1c[nH]cn1)NC(=O)[C@H](Cc1ccccc1)NC(=O)CCc1cccnc1)C(=O)NC(C)(CO)CO [SR 43 737] ({Propanoyl(3-(3-pyridyl))}-FH[Sta]I-{NHC(Me)(CH2OH)2}) | 2.14 nM
CC[C@H](C)[C@H](NC(=O)C[C@H](O)[C@H](CC(C)C)NC(=O)C(Cc1cccnc1)NC(=O)[C@H](Cc1ccccc1)NC(=O)OC(C)(C)C)C(=O)NC(C)(CO)CO (some centres unmarked) [SR 43 763] (Boc-F[ξ3Pal][Sta]I-{NHC(Me)(CH2OH)2}) | 77.6 nM
CCCC[C@H](NC(=O)[C@H](Cc1ccccc1)NC(=O)OC(C)(C)C)C(=O)N[C@@H](CC(C)C)[C@@H](O)CC(=O)N[C@H](C(=O)NC1(CO)CCCCC1)[C@@H](C)CC [SR 43 799] (Boc-F[Nle][Sta]I-X2) | 5.5 nM
CCCC[C@H](NC(=O)[C@H](Cc1ccccc1)NC(=O)OC(C)(C)C)C(=O)N[C@@H](CC(C)C)[C@@H](O)CC(=O)N[C@@H](C)C(=O)NC(C)(C)CO [SR 43 860] (Boc-F[Nle][Sta]A-X1) | 33.1 nM
CC[C@H](C)[C@H](NC(=O)C[C@H](O)[C@H](CC(C)C)NC(=O)[C@H](Cc1cn(C)cn1)NC(=O)[C@H](Cc1ccccc1)NC(=O)CCc1cccnc1)C(=O)NC(C)(C)CO [SR 43 966] ({Propanoyl(3-(3-pyridyl))}-F[His(τ-Me)][Sta]I-X1) | 19.1 nM
CCCC[C@H](NC(=O)[C@H](Cc1ccccc1)NC(=O)OC(C)(C)C)C(=O)N[C@@H](CC(C)C)[C@@H](O)CC(=O)N[C@H](C(=O)NC(CO)(CO)CO)[C@@H](C)CC [SR 44 094] (Boc-F[Nle][Sta]I-{NHC(CH2OH)3}) | 18.2 nM
CC[C@H](C)[C@H](NC(=O)C[C@H](O)[C@H](CC1CCCCC1)NC(=O)[C@H](Cc1nc2ccccc2[nH]1)NC(=O)[C@H](Cc1ccccc1)NC(=O)OC(C)(C)C)C(=O)NC(C)(CO)CO [SR 44 125] | 36.3 nM
